According to US20110207723A1, “NOVEL FUSED AMINODIHYDROTHIAZINE DERIVATIVE” (EISAI R&D MANAGEMENT CO., LTD., priority 2008, published 2011):

System: Aβ42 production
Test: Quantification of Aβ peptide in culture of neurons from rat fetus brain (Aβ42 ELISA)
Assay type: cell-based
Details: Neuron, 72 h, rat primary neuronal culture (embryonic day 18 Wistar rat cerebral cortex), medium collected three days after addition of compound, read-out: Aβ42 production reducing effect IC50
Procedure: Quantification of Aβ Peptide in Culture of Neurons from Rat Fetus Brain
Primary neuronal cultures were prepared from the cerebral cortex of embryonic day 18 Wistar rats (Charles River Japan, Yokohama, Japan). Specifically, the embryos were aseptically removed from pregnant rats under ether anesthesia. The brain was isolated from the embryo and immersed in an ice-cold L-15 medium (such as Invitrogen Corp. Cat #11415-064, Carlsbad, Calif., USA, or SIGMA L1518). The cerebral cortex was collected from the isolated brain under a stereoscopic microscope. The cerebral cortex fragments collected were enzymatically treated in an enzyme solution containing 0.25% trypsin (Invitrogen Corp. Cat #15050-065, Carlsbad, Calif., USA) and 0.01% DNase (Sigma D5025, St. Louis, Mo., USA) at 37° C. for 30 minutes to disperse the cells. Here, the enzymatic reaction was stopped by adding inactivated horse serum to the solution. The enzymatically treated solution was centrifuged at 1,500 rpm for five minutes to remove the supernatant. 5 to 10 ml of a medium was added to the resulting cell mass. Neurobasal medium (Invitrogen Corp. Cat #21103-049, Carlsbad, Calif., USA) supplemented with 2% B27 supplement (Invitrogen Corp. Cat #17504-044, Carlsbad, Calif., USA), 25 μM 2-mercaptoethanol (2-ME, WAKO Cat #139-06861, Osaka, Japan), 0.5 mM L-glutamine (Invitrogen Corp. Cat #25030-081, Carlsbad, Calif., USA), and Antibiotics-Antimycotics (Invitrogen Corp. Cat #15240-062, Carlsbad, Calif., USA) was used as the medium (Neurobasal/B27/2-ME). However, the above Neurobasal medium not supplemented with 2-ME (Neurobasal/B27) was used for the assay. The cells were redispersed by mild pipetting of the cell mass to which the medium was added. The cell dispersion was filtered through a 40-μm nylon mesh (Cell Strainer, Cat #35-2340, Becton Dickinson Labware, Franklin Lakes, N.J., USA) to remove the remaining cell mass, and thus a neuronal cell suspension was obtained. The neuronal cell suspension was diluted with the medium and then plated in a volume of 100 μl/well at an initial cell density of 5×10^5 cells/cm^2 in a 96-well polystyrene culture plate pre-coated with poly-L or D-lysine (Falcon Cat #35-3075, Becton Dickinson Labware, Franklin Lakes, N.J., USA coated with poly-L-lysine using the method shown below, or BIOCOAT™ cell environments Poly-D-lysine cell ware 96-well plate, Cat #35-6461, Becton Dickinson Labware, Franklin Lakes, N.J., USA). Poly-L-lysine coating was carried out as follows. 100 μg/ml of a poly-L-lysine (SIGMA P2636, St. Louis, Mo., USA) solution was aseptically prepared with a 0.15 M borate buffer (pH 8.5). […] of the solution was added to the 96-well polystyrene culture plate and incubated at room temperature for one or more hours or at 4° C. overnight or longer. Thereafter, the coated 96-well polystyrene culture plate was washed with sterile water four or more times, and then dried or rinsed with, for example, sterile PBS or medium, and used for cell plating. The plated cells were cultured in the culture plate at 37° C. in 5% CO2-95% air for one day. Then, the total amount of the medium was replaced with a fresh Neurobasal/B27/2-ME medium, and then the cells were cultured for further three days.
The drug was added to the culture plate on Day 4 of culture as follows. The total amount of the medium was removed from the wells, and 180 μl/well of Neurobasal medium not containing 2-ME and containing 2% B-27 (Neurobasal/B27) was added thereto. A solution of the test compound in dimethyl sulfoxide (hereinafter abbreviated as DMSO) was diluted with Neurobasal/B27 to a concentration 10-fold higher than the final concentration. 20 μl/well of the dilution was added to and sufficiently mixed with the medium. The final DMSO concentration was 1% or less. Only DMSO was added to the control group.
The cells were cultured for three days after addition of the compound, and the total amount of the medium was collected. […]

Structure (SMILES): COC[C@H]1C[C@H]2CSC(N)=N[C@@]2(c2cc(NC(=O)c3cnc(OCF)cn3)ccc2F)CO1 (relative stereo) [Example 14, N-[3-((4aR*,6R*,8aS*)-2-amino-6-methoxymethyl-4,4a,5,6-tetrahydro-7-oxa-3-thia-1-azanaphthalen-8a-yl)-4-fluorophenyl]-5-fluoromethoxypyrazine-2-carboxamide]
- IC50: 0.8 nM

Structure (SMILES): C[C@@H]1COC[C@]2(c3cc(NC(=O)c4ccc(Cl)cn4)ccc3F)N=C(N)SC[C@H]12 (relative stereo) [Example 23, N-[3-((4aR*,5S*,8aS*)-2-amino-5-methyl-4,4a,5,6-tetrahydro-7-oxa-3-thia-1-azanaphthalen-8a-yl)-4-fluorophenyl]-5-chloropyridine-2-carboxamide]
- IC50: 12 nM

Structure (SMILES): CO[C@H]1COC[C@]2(c3cc(NC(=O)c4ccc(C#N)cn4)ccc3F)N=C(N)SC[C@H]12 (relative stereo) [Example 30, N-[3-((4aS*,5R*,8aS*)-2-amino-5-methoxy-4,4a,5,6-tetrahydro-7-oxa-3-thia-1-azanaphthalen-8a-yl)-4-fluorophenyl]-5-cyanopyridine-2-carboxamide]
- IC50: 6 nM

Structure (SMILES): NC1=N[C@@]2(c3cc(NC(=O)c4cnc(OC(F)F)cn4)ccc3F)COC[C@@H](F)[C@H]2CS1 [Example 22, N-[3-((4aS,5S,8aS)-2-amino-5-fluoro-4,4a,5,6-tetrahydro-7-oxa-3-thia-1-azanaphthalen-8a-yl)-4-fluorophenyl]-5-difluoromethoxypyrazine-2-carboxamide]
- IC50: 4 nM

Structure (SMILES): C[C@H]1COC[C@]2(c3cc(NC(=O)c4cnc(C(F)F)cn4)ccc3F)N=C(N)SC[C@H]12 (relative stereo) [Example 29, N-[3-((4aR*,5R*,8aS*)-2-amino-5-methyl-4,4a,5,6-tetrahydro-7-oxa-3-thia-1-azanaphthalen-8a-yl)-4-fluorophenyl]-5-difluoromethylpyrazine-2-carboxamide]
- IC50: 3 nM

Structure (SMILES): NC1=N[C@@]2(c3cc(NC(=O)c4ccc(Br)cn4)ccc3F)COCC[C@H]2CS1 (single isomer, unassigned) [Example 50, N-[3-((4aR*,8aS*)-2-amino-4,4a,5,6-tetrahydro-7-oxa-3-thia-1-azanaphthalen-8a-yl)-4-fluorophenyl]-5-bromopyridine-2-carboxamide]
- IC50: 2 nM

Structure (SMILES): C[C@H]1C[C@H]2CSC(N)=N[C@@]2(c2cc(NC(=O)c3ccc(C#N)cn3)ccc2F)CO1 (relative stereo) [Example 7, N-[3-((4aR*,6S*,8aS*)-2-amino-6-methyl-4,4a,5,6-tetrahydro-7-oxa-3-thia-1-azanaphthalen-8a-yl)-4-fluorophenyl]-5-cyanopyridine-2-carboxamide]
- IC50: 0.7 nM

Structure (SMILES): C[C@H]1C[C@H]2CSC(N)=N[C@@]2(c2cc(NC(=O)c3cnc(OCF)cn3)ccc2F)CO1 (relative stereo) [Example 10, N-[3-((4aR*,6S*,8aS*)-2-amino-6-methyl-4,4a,5,6-tetrahydro-7-oxa-3-thia-1-azanaphthalen-8a-yl)-4-fluorophenyl]-5-fluoromethoxypyrazine-2-carboxamide]
- IC50: 1 nM

Structure (SMILES): NC1=N[C@@]2(c3cc(NC(=O)c4ccc(C(F)(F)F)cn4)ccc3F)CO[C@@H](CF)C[C@H]2CS1 [Example 46, N-[3-((4aR,6R,8aS)-2-amino-6-fluoromethyl-4,4a,5,6-tetrahydro-7-oxa-3-thia-1-azanaphthalen-8a-yl)-4-fluorophenyl]-5-trifluoromethylpyridine-2-carboxamide]
- IC50: 1 nM

Structure (SMILES): NC1=N[C@@]2(c3cc(NC(=O)c4cnc(C(F)F)cn4)ccc3F)CO[C@@H](CF)C[C@H]2CS1 [Example 48, N-[3-((4aR,6R,8aS)-2-amino-6-fluoromethyl-4,4a,5,6-tetrahydro-7-oxa-3-thia-1-azanaphthalen-8a-yl)-4-fluorophenyl]-5-difluoromethylpyrazine-2-carboxamide]
- IC50: 2 nM

Structure (SMILES): NC1=N[C@@]2(c3cc(-c4cccnc4F)ccc3F)COCC[C@H]2CS1 (racemic) [Example 61, (±)-(4aR*,8aS*)-8a-[2-fluoro-5-(2-fluoropyridin-3-yl)phenyl]-4,4a,5,6,8,8a-hexahydro-7-oxa-3-thia-1-azanaphthalen-2-ylamine]
- IC50: 319 nM

Structure (SMILES): NC1=N[C@@]2(c3cc(NC(=O)c4cnc(C(F)F)cn4)ccc3F)CO[C@@H](C(F)(F)F)C[C@H]2CS1 (relative stereo) [Example 43, N-[3-((4aR*,6R*,8aS*)-2-amino-6-trifluoromethyl-4,4a,5,6-tetrahydro-7-oxa-3-thia-1-azanaphthalen-8a-yl)-4-fluorophenyl]-5-difluoromethylpyrazine-2-carboxamide]
- IC50: 1.7 nM

Structure (SMILES): C[C@H]1COC[C@]2(c3cc(NC(=O)c4cnc(OC(F)F)cn4)ccc3F)N=C(N)SC[C@H]12 (relative stereo) [Example 28, N-[3-((4aR*,5R*,8aS*)-2-amino-5-methyl-4,4a,5,6-tetrahydro-7-oxa-3-thia-1-azanaphthalen-8a-yl)-4-fluorophenyl]-5-difluoromethoxypyrazine-2-carboxamide]
- IC50: 1.4 nM

Structure (SMILES): NC1=N[C@@]2(c3cc(NC(=O)c4cnc(OCF)cn4)ccc3F)COCC[C@H]2CS1 (relative stereo) [Example 2, N-[348S*,8aR*)-2-amino-4,4a,5,6-tetrahydro-7-oxa-3-thia-1-azanaphthalen-8a-yl)-4-fluorophenyl]-5-fluoromethoxypyrazine-2-carboxamide]
- IC50: 2 nM

Structure (SMILES): NC1=N[C@@]2(c3cc(NC(=O)c4cnc(C(F)F)cn4)ccc3F)COC[C@@H](F)[C@H]2CS1 [Example 17, N-[3-((4aS,5S,8aS)-2-amino-5-fluoro-4,4a,5,6-tetrahydro-7-oxa-3-thia-1-azanaphthalen-8a-yl)-4-fluorophenyl]-5-difluoromethylpyrazine-2-carboxamide]
- IC50: 4 nM

Structure (SMILES): C[C@@H]1COC[C@]2(c3cc(NC(=O)c4cnc(OC(F)F)cn4)ccc3F)N=C(N)SC[C@H]12 (relative stereo) [Example 25, N-[3-((4aR*,5S*,8aS*)-2-amino-5-methyl-4,4a,5,6-tetrahydro-7-oxa-3-thia-1-azanaphthalen-8a-yl)-4-fluorophenyl]-5-difluoromethoxypyrazine-2-carboxamide]
- IC50: 14 nM

Structure (SMILES): NC1=N[C@@]2(c3cc(-c4cccnc4F)ccc3F)CO[C@@H](C(F)(F)F)C[C@H]2CS1 (relative stereo) [Example 59, (±)-(4aR*,6R*,8aS*)-8a-[2-fluoro-5-(2-fluoropyridin-3-yl)phenyl]-6-trifluoromethyl-4,4a,5,6,8,8a-hexahydro-7-oxa-3-thia-1-azanaphthalen-2-ylamine]
- IC50: 87 nM

Structure (SMILES): N#Cc1ccc(C(=O)Nc2csc(C34COCCC3CSC(N)=N4)c2)nc1 (stereo in doubt) [Example 64, N-[5-((4aR*,8aS*)-2-amino-4,4a,5,6-tetrahydro-7-oxa-3-thia-1-azanaphthalen-8a-yl)thiophen-3-yl]-5-cyanopyridine-2-carboxamide]
- IC50: 14 nM

Structure (SMILES): NC1=N[C@@]2(c3cc(NC(=O)c4ccc(F)cn4)ccc3F)COCC[C@H]2CS1 (single isomer, unassigned) [Example 53, N-[3-((4aR*,8aS*)-2-amino-4,4a,5,6-tetrahydro-7-oxa-3-thia-1-azanaphthalen-8a-yl)-4-fluorophenyl]-5-fluoropyridine-2-carboxamide]
- IC50: 5.6 nM
